Assay results reported in US20180325814A1, “CONFECTIONERY FOR ORAL CARE APPLICATIONS” (The Hershey Company, priority 2017, published 2018).

Experiments:
[1] = in vitro study of arginine, CGP and HPC, enamel microhardness (FIG. 3); design: species or system bovine; settings: after 10 days of exposure
Text: The in vitro study used bovine tooth enamel slabs which were polished and then subjected to an initial tooth softening step using lactic acid. An initial microhardness measurement was then made on each enamel specimen. The enamel specimens were subjected to four pH cycles per day, each cycle comprising a thirty-minute acid demineralization step followed by a twenty-minute lozenge remineralization step. Final microhardness measurements were taken on each specimen after 10 days of treatment and after 20 days of treatment. A fluoride dentifrice and a no-lozenge control sample were analyzed according to the same procedure for comparison purposes.
The latter two alternatives, chitosan and biofilm dispersing agents, were ruled out because they lacked approval for food use. Arginine was selected as the leading candidate for further evaluation. A new in vitro study was undertaken to evaluate arginine alone and in combination with CGP and HPC. CGP alone, CGP with HPC and fluoride were also investigated. The testing procedure was substantially the same as the in vitro study for calcium salts.
The height of each bar represents the change in the KHN as calculated by ΔKHN=KHN10-DAY−KHNINITIAL.

[2] = sugar alcohol assessment of salivary flow and time in mouth (FIG. 4); assay type: in vivo; settings: test subjects using a mint vs at rest with no mint; preliminary results
Text: In addition to evaluating additives for their ability to provide tooth strengthening properties, the inventors also investigated a number of sugar alcohols, individually and in combination, for their ability to increase salivary flow and TIM. The investigation included dual layer formulations as well as compressed tablets. Greater salivary flow is desirable to create calcium delivery and increased TIM provides greater delivery time for active ingredients to have an effect. In FIG. 4, the blue bars represent the average salivary flow difference (in ml/min) between test subjects at rest with no mint versus test subjects using a mint. The green bars represent the average dissolution time in seconds/1000.

Compound | change in enamel microhardness (ΔKHN) [1] | average salivary flow difference [2]
Cl.N=C(N)NCCC[C@H](N)C(=O)O [arginine HCl] | did not produce significant results | 
calcium glycerophosphate [CGP] | increase in microhardness that was very similar to the sample for fluoride | 
N=C(N)NCCC[C@H](N)C(=O)O [Arginine] | did not produce significant results | 
OC[C@@H](O)[C@@H](O)CO [erythritol] |  | stimulated salivary flow
